Our source for the pest or weed control values is patent US20110086759A1, “CHEMICAL COMPOUNDS” (SYNGENTA CROP PROTECTION, INC., priority 2007, published 2011).

What all share (format): in vivo
Experiment [1] has as its system Amaranthus retoflexus (AMARE). Description: Post-emergence biological efficacy, glasshouse pot test. As to conditions: Amaranthus retroflexus, 312 h; post-emergence, 1,000 g/ha, evaluated after 13 days (100=total damage; 0=no damage); read-out: Percentage damage caused to weed species, AMARE. The essentials:
(§1)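 Scored 13 days after spraying on a 0 (no damage) to 100 (total damage) scale. Treatment was a post-emergence spray at 1000 or 250 g/ha, from acetone/water 50:50 plus 0.5% Tween 20, onto 8-day-old plants in soil pots. Growth at 24/16° C, 14 h photoperiod, 65% humidity, watered twice daily.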

Experiment [2] relates to Setaria faberi (SETFA). Described as above. As to conditions: 312 h, post-emergence, 1,000 g/ha, evaluated after 13 days (100=total damage; 0=no damage), read-out: Percentage damage caused to weed species, SETFA. The essentials:
as §1

The test system of experiment [3] is Solanum nigrum (SOLNI). Described as above. As to conditions: 312 h, post-emergence, 1,000 g/ha, evaluated after 13 days (100=total damage; 0=no damage), read-out: Percentage damage caused to weed species, SOLNI. In a few lines:
as §1

Experiment [4] concerns Alopecurus myosuroides (ALOMY). The experiment is described as above. As to conditions: 312 h, post-emergence, 1,000 g/ha, evaluated after 13 days (100=total damage; 0=no damage), read-out: Percentage damage caused to weed species, ALOMY. In a few lines: as §1
Experiment [5] deals with Echinochloa crus-galli (ECHCG). The experiment is described as above. As to conditions: 312 h, post-emergence, 1,000 g/ha, evaluated after 13 days (100=total damage; 0=no damage), read-out: Percentage damage caused to weed species, ECHCG. The essentials: as §1
The subject of experiment [6] is Ipomea hederaceae (IPOHE). The description is as above. As to conditions: Ipomoea hederacea, 312 h; post-emergence, 1,000 g/ha, evaluated after 13 days (100=total damage; 0=no damage); read-out: Percentage damage caused to weed species, IPOHE. The essentials:
as §1

Experiment [7] deals with Amaranthus retoflexus (AMARE). As to the kind of experiment: Pre-emergence biological efficacy, glasshouse pot test. As to conditions: Amaranthus retroflexus, 312 h; pre-emergence, 1,000 g/ha, evaluated after 13 days (100=total damage; 0=no damage); read-out: Percentage damage AMARE. The essentials:
(§2)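 Scores on a 0–100 damage scale were taken 13 days after spraying. Application rate 1000 or 250 g/ha, one day after sowing, in acetone/water-based aqueous spray containing 0.5% Tween 20.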

The subject of experiment [8] is Setaria faberi (SETFA). Described as above. As to conditions: 312 h, pre-emergence, 1,000 g/ha, evaluated after 13 days (100=total damage; 0=no damage), read-out: Percentage damage SETFA. The essentials: as §2
The subject of experiment [9] is Solanum nigrum (SOLNI). The description is as above. As to conditions: 312 h, pre-emergence, 1,000 g/ha, evaluated after 13 days (100=total damage; 0=no damage), read-out: Percentage damage SOLNI. The essentials: as §2
Experiment [10] deals with Alopecurus myosuroides (ALOMY). Described as above. As to conditions: 312 h, pre-emergence, 1,000 g/ha, evaluated after 13 days (100=total damage; 0=no damage), read-out: Percentage damage ALOMY. In a few lines: as §2
Experiment [11] relates to Echinochloa crus-galli (ECHCG). Described as above. As to conditions: 312 h, pre-emergence, 1,000 g/ha, evaluated after 13 days (100=total damage; 0=no damage), read-out: Percentage damage ECHCG. In a few lines: as §2
Experiment [12] relates to Ipomea hederaceae (IPOHE). The description is as above. As to conditions: Ipomoea hederacea, 312 h; pre-emergence, 1,000 g/ha, evaluated after 13 days (100=total damage; 0=no damage); read-out: Percentage damage IPOHE. In a few lines: as §2

`COC(=O)c1nc(C2CC2)nc(NCc2ccc(S(N)(=O)=O)cc2)c1Cl` [Compound 4-93, 4-(4-Aminosulphonyl-phenyl)methylamino-5-chloro-2-cyclopropyl-6-methoxycarbonyl-pyrimidine]: the pest or weed control at 1000 g/ha amounted to 30% in [1]; 0% in [2]; 50% in [3]; 0% in experiment [4]; 0% in experiment [5]; 70% in experiment [6]. Moreover, the pest or weed control at 1000 g/ha is 30% in [7]; 0% in experiment [8]; 0% in [9]; 0% in [10]; 0% in [11]; 40% in [12].

Consider `COC(=O)c1ccc(CNc2nc(C3CC3)nc(C(=O)OC)c2Cl)cc1` [Compound 4-94, 5-Chloro-2-cyclopropyl-6-methoxycarbonyl-4-(4-methoxy-carbonylphenyl-methylamino)-pyrimidine], for which the pest or weed control at 1000 g/ha in experiment [1] was 100%; in experiment [2] it was 30%; in experiment [3], 90%; in [4], 10%; in experiment [5] it was 10%; in experiment [6], 100%. In addition, the pest or weed control at 1000 g/ha in experiment [7] turned out to be 70%; in [8] it was 10%; in experiment [9] it was 80%; in experiment [10], 10%; in [11] it was 10%; in [12], 50%.

As to `COC(=O)c1nc(C2CC2)nc(NCc2cccc(-c3ccccc3)c2)c1Cl` [Compound 4-95, 5-Chloro-2-cyclopropyl-6-methoxycarbonyl-4-(3-phenylphenyl-methylamino)-pyrimidine], the pest or weed control at 1000 g/ha in experiment [1] amounted to 90%; in [2], 60%; in experiment [3], 80%; in experiment [4], 20%; in experiment [5] it was 60%; in experiment [6], 100%. Moreover, the pest or weed control at 1000 g/ha is 60% in experiment [7]; 10% in experiment [8]; 30% in [9]; 10% in experiment [10]; 10% in experiment [11]; 30% in experiment [12].

For the molecule `COC(=O)c1nc(C2CC2)nc(NCc2cccc(F)c2F)c1Cl` [Compound 4-96, 5-Chloro-2-cyclopropyl-4-(2,3-difluorophenyl-methylamino)-6-methoxycarbonyl-pyrimidine], the pest or weed control at 1000 g/ha stood at 100% in experiment [1]; 90% in [2]; 100% in experiment [3]; 20% in experiment [4]; 80% in experiment [5]; 100% in [6]. The pest or weed control at 1000 g/ha in experiment [7] was 60%; in experiment [8] it was 30%; in experiment [9], 60%; in experiment [10], 10%; in [11], 20%; in experiment [12] it was 50%.

For `COC(=O)c1nc(C2CC2)nc(NCc2ccc(F)cc2F)c1Cl` [Compound 4-97, 5-Chloro-2-cyclopropyl-4-(2,4-difluorophenyl-methylamino)-6-methoxycarbonyl-pyrimidine], the pest or weed control at 1000 g/ha in experiment [1] came out at 100%; in experiment [2] it was 90%; in experiment [3], 100%; in experiment [4], 20%; in [5], 80%; in experiment [6] it was 100%. Moreover, the pest or weed control at 1000 g/ha was found to be 40% in [7]; 40% in [8]; 50% in [9]; 20% in experiment [10]; 40% in experiment [11]; 60% in [12].

Consider `COC(=O)c1nc(C2CC2)nc(NCc2cc(F)ccc2F)c1Cl` [Compound 4-98, 5-Chloro-2-cyclopropyl-4-(2,5-difluorophenyl-methyl-amino)-6-methoxycarbonyl-pyrimidine], for which the pest or weed control at 1000 g/ha amounted to 100% in experiment [1]; 100% in experiment [2]; 100% in experiment [3]; 40% in [4]; 80% in [5]; 100% in experiment [6]. For the same molecule, the pest or weed control at 1000 g/ha in [7] turned out to be 50%; in [8], 30%; in experiment [9], 60%; in [10], 30%; in experiment [11] it was 20%; in [12], 60%.

As for `COC(=O)c1nc(C2CC2)nc(NCc2c(F)cccc2F)c1Cl` [Compound 4-99, 5-Chloro-2-cyclopropyl-4-(2,6-difluorophenylmeth-ylamino)-6-methoxycarbonyl-pyrimidine], the pest or weed control at 1000 g/ha in experiment [1] amounted to 100%; in experiment [2], 100%; in experiment [3] it was 100%; in [4] it was 50%; in experiment [5], 100%; in [6] it was 100%. Further, the pest or weed control at 1000 g/ha in experiment [7] came out at 60%; in [8] it was 50%; in experiment [9], 60%; in experiment [10] it was 30%; in [11] it was 50%; in experiment [12] it was 60%.

As for `COC(=O)c1nc(C2CC2)nc(NCc2cc(F)cc(F)c2)c1Cl` [Compound 4-100, 5-Chloro-2-cyclopropyl-4-(3,5-difluorophenylmeth-ylamino)-6-methoxy-carbonylpyrimidine], the pest or weed control at 1000 g/ha in experiment [1] came to 100%; in experiment [2], 100%; in [3] it was 100%; in [4], 30%; in [5], 70%; in experiment [6], 100%. Also, the pest or weed control at 1000 g/ha in experiment [7] is 70%; in experiment [8] it was 20%; in experiment [9], 60%; in experiment [10] it was 20%; in experiment [11], 40%; in experiment [12] it was 50%.

`COC(=O)c1nc(C2CC2)nc(NCc2ccc(Cl)cc2F)c1Cl` [Compound 4-101, 5-Chloro-4-(4-chloro-2-fluoro-phenylmethyl-amino)-2-cyclopropyl-6-methoxycarbonyl-pyrimidine]: the pest or weed control at 1000 g/ha worked out at 100% in experiment [1]; 90% in [2]; 100% in experiment [3]; 30% in [4]; 50% in experiment [5]; 100% in experiment [6]. The pest or weed control at 1000 g/ha in experiment [7] worked out at 70%; in experiment [8], 10%; in [9] it was 30%; in experiment [10], 10%; in experiment [11], 30%; in [12] it was 70%.
